Legend:
TIPΔD2 [1] = target: T1, TIPΔD2 (Methanopyrus kandleri, UniProt Q8TZC3, DEL143-290); assay: malachite green phosphate release ATPase assay; format: biochemical
mkTIP49 = mkTIP49 (Methanopyrus kandleri, UniProt Q8TZC3); assay: malachite green phosphate release ATPase assay; format: biochemical; settings: optimum 75-80 °C
TIPΔD2 [2] = target: T1, TIPΔD2; assay: native nanoelectrospray ionization mass spectrometry; format: binding; settings: tightly bound; co-purified from E. coli host
native MS = target: the molecule itself; assay: native MS

Nc1ncnc2c1ncn2[C@@H]1O[C@H](COP(=O)(O)OP(=O)(O)OP(=O)(O)O)[C@@H](O)[C@H]1O [ATP] was tested, and the “malachite green phosphate release ATPase assay (PiColorLock ALS)” value (TIPΔD2 [1]) was “deletion of D2 had a dramatic stimulating effect on the catalytic activity of mkTIP49” and the “malachite green phosphate release ATPase assay (PiColorLock ALS)” value (mkTIP49) was “we measured the intrinsic ATPase activity of mkTIP49 and mutants thereof”.

For Nc1ncnc2c1ncn2[C@@H]1O[C@H](COP(=O)(O)OP(=O)(O)O)[C@@H](O)[C@H]1O [ADP], the “native nanoelectrospray ionization mass spectrometry” value (TIPΔD2 [2]) was “Both full-length mkTIP49 and TIPΔD2 contain a tightly bound ADP cofactor”.

B1: Methanopyrus kandleri TIP49 protein (mkTIP49), wild type, full length (enzyme, UniProt Q8TZC3 1-455, looked up)
chain: MVEIKEIGEVSTEETSPGAHSHITGLGLDENLKAKPVGDGLVGQEEAREAAGIVVEMVKQGRRAGHGLLLVGPPGTGKTAIAYGIARELGEDVPFVSISGSEIYGTNLSKTEFLQQAIRRAIGVEFTETREVIEGKVESLEIERAKHPLSPYMEVPSGAIIELKTQDDHRRFKVPEEIAIQLVQAGVREGDVIQIDVESGHVTKLGRAKDALEEEEEELLGVHAVELPEGPVQKKKEIKRVVTLHDLDMANVRAGRLLGFREEEITDEIRQKVDERVQKMVDEGEASLVPGVLFIDEAHMLDIEAFAFLNRSLEEEIAPILVMATNRAMAKVRGTDEEAPHGIPGDLLDRMLIARTRPFERHEIHEIIGIRARVQDIQLTDEAHEYLTDLGEEKSIRYATRLLEPARIVAEKEGSEVVEKKHVERVEEVFTDVSDSVEYMERMRRELPVMKYLTG
With B1 the “stoichiometry N” value (native MS) was 12.

B2: isolated mkTIP49 D2 insertion domain (TIPins, residues 124–290) (domain or fragment, Methanopyrus kandleri, UniProt Q8TZC3 124-290, looked up)
chain: VEFTETREVIEGKVESLEIERAKHPLSPYMEVPSGAIIELKTQDDHRRFKVPEEIAIQLVQAGVREGDVIQIDVESGHVTKLGRAKDALEEEEEELLGVHAVELPEGPVQKKKEIKRVVTLHDLDMANVRAGRLLGFREEEITDEIRQKVDERVQKMVDEGEASLVP
With B2 the “stoichiometry N” value (native MS) was 2.

— PMC3991330 (Structure(London, England:1993), 2014)
